Data reported in ChEMBL document CHEMBL1123796, “New antitumor agents containing the anthracene nucleus” (1987).

Experiments:
Assay type in all cases: functional
[1] = test system: WiDr; assay: Tested in vitro for inhibitory activity of human tumor cell growth against WIDR colon tumor, by using clonogenic assays.; conditions: read-out: ID50 (the source's name)
[2] = In vitro inhibition of human UACC-66 ovarian tumor cell line growth.; conditions: read-out: ID50 (the source's name)
[3] = Tested in vitro for inhibitory activity of human tumor cell growth against HEC 1A endometrial tumor, by using clonogenic assays.; conditions: read-out: ID50 (the source's name)
[4] = test system: RPMI-8226; assay: In vitro inhibition of human 8226 myeloma tumor cell line growth.; conditions: read-out: ID50 (the source's name)
[5] = test system: P388; assay: Antileukemic activity against P-388 in mice at a dose of 67 mg/kg administered intraperitoneally after 3 day treatment; conditions: Mus musculus, P388, ip, 72 h, route intraperitoneal
[6] = test system: P388; assay: Antileukemic activity against P-388 in mice at a dose of 67 mg/kg administered intraperitoneally after 3 day treatment(Trial 2); conditions: Mus musculus, P388, ip, 72 h, route intraperitoneal
[7] = test system: P388; assay: Antileukemic activity against P-388 in mice at a dose of 100 mg/kg administered intraperitoneally after 3 day treatment(Trial 2); conditions: Mus musculus, P388, ip, 72 h, route intraperitoneal
[8] = test system: P388; assay: Antileukemic activity against P-388 in mice at a dose of 44 mg/kg administered intraperitoneally after 3 day treatment(Trial 2); conditions: Mus musculus, P388, ip, 72 h, route intraperitoneal
[9] = test system: P388; assay: Antileukemic activity against P-388/ADR (P-388 cells resistant to adriamycin) in mice at a dose of 30 mg/kg administered intraperitoneally after 3 day treatment(Trial 2); conditions: Mus musculus, P388, ip, 72 h, route intraperitoneal
[10] = test system: P388; assay: Antileukemic activity against P-388/ADR (P-388 cells resistant to adriamycin) in mice at a dose of 100 mg/kg administered intraperitoneally after 3 day treatment(Trial 2); conditions: Mus musculus, P388, ip, 72 h, route intraperitoneal
[11] = test system: P388; assay: Antileukemic activity against P-388/ADR (P-388 cells resistant to adriamycin) in mice at a dose of 44 mg/kg administered intraperitoneally after 3 day treatment(Trial 2); conditions: Mus musculus, P388, ip, 72 h, route intraperitoneal
[12] = test system: P388; assay: Antileukemic activity against P-388 in mice at a dose of 100 mg/kg administered intraperitoneally after 3 day treatment; conditions: Mus musculus, P388, ip, 72 h, route intraperitoneal
[13] = test system: P388; assay: Antileukemic activity against P-388 in mice at a dose of 30 mg/kg administered intraperitoneally after 3 day treatment(Trial 2); conditions: Mus musculus, P388, ip, 72 h, route intraperitoneal
[14] = test system: P388; assay: Antileukemic activity against P-388 in mice at a dose of 44 mg/kg administered intraperitoneally after 3 day treatment; conditions: Mus musculus, P388, ip, 72 h, route intraperitoneal
[15] = test system: P388; assay: Antileukemic activity against P-388 in mice at a dose of 125 mg/kg administered intraperitoneally after 3 day treatment; conditions: Mus musculus, P388, ip, 72 h, route intraperitoneal
[16] = test system: P388; assay: Antileukemic activity against P-388/ADR (P-388 cells resistant to adriamycin) n mice at a dose of 67 mg/kg administered intraperitoneally after 3 day treatment(Trial 2); conditions: Mus musculus, P388, ip, 72 h, route intraperitoneal
[17] = test system: RPMI-8226; assay: Effect on protein synthesis was determined by incorporation of radioligand into 8226 human myeloma cells at a concentration of 0.01 ug/mL
[18] = test system: RPMI-8226; assay: Effect on RNA synthesis was determined by incorporation of radioligand into 8226 human myeloma cells at a concentration of 0.01 ug/mL
[19] = test system: L1210; assay: Effect on DNA synthesis was determined by incorporation of radioligand into L1210 murine leukemia at a concentration of 10 ug/mL (*: >1 log cell kill); conditions: Mus musculus
[20] = test system: RPMI-8226; assay: Effect on RNA synthesis was determined by incorporation of radioligand into 8226 human myeloma cells at a concentration of 10 ug/mL (*: >1 log cell kill)
[21] = test system: RPMI-8226; assay: Effect on protein synthesis was determined by incorporation of radioligand into 8226 human myeloma cells at a concentration of 10 ug/mL (*: >1 log cell kill)
[22] = test system: L1210; assay: Effect on protein synthesis was determined by incorporation of radioligand into L1210 murine leukemia at a concentration of 1 ug/mL. (*: >50% cell kill); conditions: Mus musculus
[23] = test system: RPMI-8226; assay: Effect on DNA synthesis was determined by incorporation of radioligand into 8226 human myeloma cells at a concentration of 1 ug/mL. (*: >50% cell kill)
[24] = test system: RPMI-8226; assay: Effect on DNA synthesis was determined by incorporation of radioligand into 8226 human myeloma cells at a concentration of 0.1 ug/mL
[25] = test system: L1210; assay: Effect on RNA synthesis was determined by incorporation of radioligand into L1210 murine leukemia at a concentration of 10 ug/mL (*: >1 log cell kill); conditions: Mus musculus
[26] = test system: RPMI-8226; assay: Effect on RNA synthesis was determined by incorporation of radioligand into 8226 human myeloma cells at a concentration of 0.1 ug/mL
[27] = test system: L1210; assay: Effect on protein synthesis was determined by incorporation of radioligand into L1210 murine leukemia at a concentration of 0.1 ug/mL; conditions: Mus musculus
[28] = test system: L1210; assay: Effect on protein synthesis was determined by incorporation of radioligand into L1210 murine leukemia at a concentration of 10 ug/mL (*: >1 log cell kill); conditions: Mus musculus
[29] = test system: RPMI-8226; assay: Effect on protein synthesis was determined by incorporation of radioligand into 8226 human myeloma cells at a concentration of 0.1 ug/mL
[30] = test system: L1210; assay: Effect on DNA synthesis was determined by incorporation of radioligand into L1210 murine leukemia at a concentration of 0.01 ug/mL; conditions: Mus musculus
[31] = test system: L1210; assay: Effect on RNA synthesis was determined by incorporation of radioligand into L1210 murine leukemia at a concentration of 0.01 ug/mL; conditions: Mus musculus
[32] = test system: L1210; assay: Effect on RNA synthesis was determined by incorporation of radioligand into L1210 murine leukemia at a concentration of 1 ug/mL. (*: >50% cell kill); conditions: Mus musculus
[33] = test system: RPMI-8226; assay: Effect on DNA synthesis was determined by incorporation of radioligand into 8226 human myeloma cells at a concentration of 0.01 ug/mL
[34] = test system: L1210; assay: Effect on protein synthesis was determined by incorporation of radioligand into L1210 murine leukemia at a concentration of 0.01 ug/mL; conditions: Mus musculus
[35] = test system: RPMI-8226; assay: Effect on DNA synthesis was determined by incorporation of radioligand into 8226 human myeloma cells at a concentration of 10 ug/mL (*: >1 log cell kill)
[36] = test system: L1210; assay: Effect on DNA synthesis was determined by incorporation of radioligand into L1210 murine leukemia at a concentration of 0.1 ug/mL; conditions: Mus musculus
[37] = test system: L1210; assay: Effect on DNA synthesis was determined by incorporation of radioligand into L1210 murine leukemia at a concentration of 1 ug/mL. (*: >50% cell kill); conditions: Mus musculus
[38] = test system: RPMI-8226; assay: Effect on RNA synthesis was determined by incorporation of radioligand into 8226 human myeloma cells at a concentration of 1 ug/mL. (*: >50% cell kill)
[39] = test system: RPMI-8226; assay: Effect on protein synthesis was determined by incorporation of radioligand into 8226 human myeloma cells at a concentration of 1 ug/mL. (*: >50% cell kill)
[40] = test system: L1210; assay: Effect on RNA synthesis was determined by incorporation of radioligand into L1210 murine leukemia at a concentration of 0.1 ug/mL; conditions: Mus musculus

SMILES: NCCN(CCO)Cc1c2ccccc2c(CN(CCN)CCO)c2ccccc12
- IC50 [1]: 5.04 µM
- IC50 [2]: 5.76 µM

SMILES: c1ccc2c(CC3=NCCN3)c3ccccc3c(CC3=NCCN3)c2c1
- IC50 [3]: 5.6 µM
- IC50 [2]: 4.36 µM

SMILES: CN(C)CCCNCc1c2ccccc2c(CNCCCN(C)C)c2ccccc12
- IC50 [3]: 56.8 µM
- IC50 [4]: 11 µM

SMILES: CCN1CCCC(NCc2c3ccccc3c(CNC3CCCN(CC)C3)c3ccccc23)C1 (configuration not stated)
- IC50 [1]: 5.63 µM
- IC50 [4]: 0.04 µM

SMILES: c1ccc2c(CNCCN3CCOCC3)c3ccccc3c(CNCCN3CCOCC3)c2c1
- ILS at 67 mg/kg [5]: 33%
- IC50 [1]: 0.02 µM
- ILS at 67 mg/kg [6]: 9%
- ILS at 100 mg/kg [7]: 9%
- ILS at 44 mg/kg [8]: -5%
- ILS at 30 mg/kg [9]: 5%
- ILS at 100 mg/kg [10]: 40%
- ILS at 44 mg/kg [11]: 15%
- ILS at 100 mg/kg [12]: -34%
- ILS at 30 mg/kg [13]: 4%
- IC50 [4]: 0.02 µM
- ILS at 44 mg/kg [14]: 28%
- ILS at 125 mg/kg [15]: -81%
- ILS at 67 mg/kg [16]: 15%
- IC50 [2]: 0.03 µM

SMILES: OCCCCCNCc1c2ccccc2c(CNCCCCCO)c2ccccc12
- IC50 [1]: 13.4 µM
- IC50 [4]: 4.67 µM
- IC50 [2]: 24.7 µM

SMILES: OCCOCCNCc1c2ccccc2c(CNCCOCCO)c2ccccc12
- IC50 [1]: 2.91 µM
- IC50 [4]: 0.23 µM
- IC50 [2]: 6.57 µM

SMILES: CN1CCN(Cc2c3ccccc3c(CN3CCN(C)CC3)c3ccccc23)CC1
- IC50 [1]: 10.4 µM
- IC50 [4]: 0.1 µM

SMILES: CN(C)CCN(C)Cc1c2ccccc2c(CN(C)CCN(C)C)c2ccccc12
- IC50 [1]: 0.14 µM
- IC50 [4]: 0.29 µM
- IC50 [2]: 0.7 µM

SMILES: OCCNCc1c2ccccc2c(CNCCO)c2ccccc12
- IC50 [4]: 27.8 µM
- IC50 [2]: 74.9 µM

SMILES: NCCNCc1c2ccccc2c(CNCCN)c2ccccc12
- IC50 [1]: 0.42 µM
- IC50 [4]: 692 µM
- IC50 [2]: 4.14 µM

SMILES: CC(C)N(CCNCc1c2ccccc2c(CNCCN(C(C)C)C(C)C)c2ccccc12)C(C)C
- IC50 [1]: 15.5 µM
- IC50 [4]: 7.63 µM

SMILES: C(=N\Nc1nccs1)/c1c2ccccc2c(/C=N/Nc2nccs2)c2ccccc12
- IC50 [1]: 5.9 µM
- IC50 [3]: 200 µM
- IC50 [4]: 6.26 µM
- IC50 [2]: 8.8 µM

SMILES: OCCCNCc1c2ccccc2c(CNCCCO)c2ccccc12
- IC50 [2]: 18.2 µM

SMILES: CNCCN(C)Cc1c2ccccc2c(CN(C)CCNC)c2ccccc12
- IC50 [1]: 1.93 µM
- IC50 [4]: 3.51 µM
- IC50 [2]: 3.42 µM

SMILES: C(=N\NC1=NCCN1)/c1c2ccccc2c(/C=N/NC2=NCCN2)c2ccccc12 [BISANTRENE]
- inhibition at 0.01 µg/mL [17]: 0%
- inhibition at 0.01 µg/mL [18]: 0%
- IC50 [1]: 0.44 µM
- inhibition at 10 µg/mL [19]: 66.8%
- inhibition at 10 µg/mL [20]: 92.9%
- inhibition at 10 µg/mL [21]: 63.5%
- inhibition at 1 µg/mL [22]: 48.5%
- inhibition at 1 µg/mL [23]: 79.9%
- IC50 [3]: 0.38 µM
- inhibition at 0.1 µg/mL [24]: 33.3%
- inhibition at 10 µg/mL [25]: 96.1%
- inhibition at 0.1 µg/mL [26]: 21%
- inhibition at 0.1 µg/mL [27]: 5.6%
- inhibition at 10 µg/mL [28]: 89%
- inhibition at 0.1 µg/mL [29]: 20.2%
- inhibition at 0.01 µg/mL [30]: 1.8%
- inhibition at 0.01 µg/mL [31]: 0%
- inhibition at 1 µg/mL [32]: 21.7%
- inhibition at 0.01 µg/mL [33]: 0%
- inhibition at 0.01 µg/mL [34]: 0%
- inhibition at 10 µg/mL [35]: 97.7%
- inhibition at 0.1 µg/mL [36]: 9.3%
- IC50 [4]: 0.23 µM
- inhibition at 1 µg/mL [37]: 43.6%
- inhibition at 1 µg/mL [38]: 91.6%
- inhibition at 1 µg/mL [39]: 41.9%
- inhibition at 0.1 µg/mL [40]: 24.1%
- IC50 [2]: 2.4 µM
